Data taken from patent US20100056620A1, “ACTIVE COMPOUND COMBINATIONS WITH INSECTICIDAL AND ACARICIDAL PROPERTIES” (Bayer CropScience AG, priority 2006, published 2010).

Experiments:
Assay type in all cases: in vivo
[1] = tested on: red spider Panonychus ulmi (PANOUL); assay: Example A: apple tree field test against red spider, count of adult spider mites on 25 leaves; conditions: etoxazole 0.05%, I-1-b 0.04%; for PANOUL (number of adult spider mites on 25 leaves): apple 'Braeburn'; for Prey/Predator ratio: PANOUL/AMBLAN
Description: (§1) In 4 replications, in each case five about 10-year-old apple trees (crown height about 2.5 m) of the cultivar “Braeburn” are treated against the red spider Panonychus ulmi (PANOUL). Here, the active compound (I-b-1) (240SC) and the commercial standard etoxazole (110 SC) are applied at the stated application rates in the presence of the predatory mite Amblyseius andersoni (AMBLAN) using a pressure-operated knapsack spray. The water application rate is 400 l/ha. Two applications are carried out at an interval of 42 days.
(§2) Evaluation is carried out 4 days prior to and 6, 29, 43 and 63 days after the 1st treatment by counting the number of adult spider mites and predatory mites on 25 leaves and establishing a prey/predator ratio as a measure for the supporting action of the beneficial species.

[2] = tested on: fruit tree spider mite (Panonychus ulmi); assay: Example B: Panonychus ulmi test on plum cuttings, with or without added predatory mites; conditions: 20 ppm, active compound alone, spray
Text: The expected activity for a given combination of two active compounds can be calculated (cf. Colby, S. R.; “Calculating Synergistic and Antagonistic Responses of Herbicide Combinations”, Weeds 15, pages 20-22, 1967) as follows:
If • X is the kill rate, expressed in % of the untreated control, when employing active compound A at an application rate of in ppm or g/ha, • Y is the kill rate, expressed in % of the untreated control, when employing active compound B at an application rate of n ppm or g/ha, • E is the kill rate, expressed in % of the untreated control, when employing active compounds A and B at application rates of m and n ppm or g/ha, • then
If the actual insecticidal kill rate is higher than the calculated one, the kill rates of the combination are superadditive, i.e. a synergistic effect is present. In this case, the kill rate that is actually observed has to be higher than the value, calculated using the formula above, for the expected kill rate (E).
To produce a suitable preparation of active compound, 1 part by weight of active compound is mixed with the stated amounts of solvent and emulsifier, and the concentrate is diluted with emulsifier-containing water to the desired concentration. […]
After the desired period of time, the kill of the pest in % is determined. […] The determined kill ratios are entered into Colby's formula.

[3] = tested on: predatory mite Amblyseius andersoni (AMBLAN); assay: Example A: apple tree field test, count of predatory mites on 25 leaves; conditions: apple 'Braeburn', etoxazole 0.05%, I-1-b 0.04%
Description: as §1, §2

[4] = 6 d after 1st treatment, AMBLAN present
[5] = 29 d after 1st treatment, AMBLAN present
[6] = 43 d after 1st treatment, two applications 42 days apart
[7] = 63 d after 1st treatment, two applications 42 days apart
[8] = −4 d (4 days prior to 1st treatment)
[9] = −4 d (4 days prior to 1st treatment), AMBLAN present

Row | SMILES | PANOUL (number of adult spider mites on 25 leaves) [1, 4] | PANOUL (number of adult spider mites on 25 leaves) [1, 5] | PANOUL (number of adult spider mites on 25 leaves) [1, 6] | PANOUL (number of adult spider mites on 25 leaves) [1, 7] | Prey/Predator ratio ([1]; 6 d after 1st treatment) | Prey/Predator ratio ([1]; 29 d after 1st treatment) | Prey/Predator ratio ([1]; 43 d after 1st treatment) | Prey/Predator ratio ([1]; 63 d after 1st treatment) | Prey/Predator ratio [1, 8] | PANOUL (number of adult spider mites on 25 leaves) [1, 9] | Kill in % after 7 d [2] | AMBLAN (number of predatory mites on 25 leaves) ([3]; 6 d after 1st treatment) | AMBLAN (number of predatory mites on 25 leaves) ([3]; 29 d after 1st treatment) | AMBLAN (number of predatory mites on 25 leaves) [3, 6] | AMBLAN (number of predatory mites on 25 leaves) [3, 7] | AMBLAN (number of predatory mites on 25 leaves) [3, 8]
1 | CCC(C)(C)C(=O)OC1=C(c2ccc(Cl)cc2Cl)C(=O)OC12CCCCC2 [I-b-1, spirodiclofen] | 13 | 111 | 52 | 0 | 4.3 | 1.9 | 0.5 | 0.00 | 18 | 36 | 70% | 3 | 57 | 100 | 62 | 2
2 | CCOc1cc(C(C)(C)C)ccc1C1COC(c2c(F)cccc2F)=N1 (stereo not shown) [etoxazole, reference compound] | 10 | 221 | 203 | 87 | 2.0 | 12.3 | 3.9 | 1.01 | 25 | 25 |  | 5 | 18 | 52 | 86 | 1
